Results: patent US20260284082A1, “TARGETING THE PANX1-P2Y2R-TRPV4 PATHWAY TO TREAT LUNG ISCHEMIA-REPERFUSION INJURY” (UNIVERSITY OF VIRGINIA PATENT FOUNDATION, priority 2023, published 2026)

Legend:
[1] = test system: pulmonary endothelium of small PAs; assay: Baseline endothelial Ca2+ signaling in en face small PAs after lung IR (Fluo-4 confocal imaging); assay type: cell-based, mice
Protocol: (§1) Murine lung IR model: A well-established left lung IRI model involving temporary in vivo ligation of the left hilum (pulmonary artery, vein, and airway) was used.^6 Briefly, mice were anesthetized with inhaled isoflurane, intubated, ventilated with room air at 150 strokes/min with a tidal volume of […] (Harvard Apparatus Co, South Natick, MA), and heparinized (20 U/kg: Hospira Inc, Lake Forest, IL). An anterolateral thoracotomy was performed through the fourth intercostal space to expose the left hilum. A 6-0 Prolene suture (Ethicon. Somerville, NJ) was passed around the left hilum, and the suture ends were passed through a 5-mm length of polyethylene (PE)-50 tubing. A surgical clip was used to fashion a Rummel tourniquet to provide temporary occlusion of the left hilar structures. The thoracotomy was closed, anesthesia was weaned, and analgesia was administered (intraperitoneal buprenorphine. 0.2 mg/kg). Animals recovered in their cages during the 1-hour ischemic period, after which they were anesthetized again and intubated, the Rummel tourniquet was removed, and the thoracotomy was closed. Animals were again extubated, recovered in their cage, and monitored during the 2-hour reperfusion period. Sham animals underwent the same surgical procedure except that application of the Rummel tourniquet to induce ischemia was omitted; thus, these animals were perfused for a total of 3 hours.
Ca^2+ imaging in Pas: Ca^2+ imaging in small Pas was performed as previously described.8 Fourth-order, small (~50 μm diameter) Pas (see FIG. 1B) were dissected from left lungs in cold HEPES-buffered physiological salt solution (HEPES-PSS; 10 mM HEPES, 134 mM NaCl, 6 mM KCl, 1 mM MgCl2 hexahydrate, 2 mM CaCl2) dihydrate, and 7 mM dextrose; pH adjusted to 7.4 using 1 M NaOH). […] Fluo-4 was excited using a 488-nm solid-state laser, and emitted fluorescence was captured using a 525/36-nm band-pass filter. […] Baseline Ca^2+ signaling activity was recorded in the absence of CPA. […]

TRPV4EC channels = assay: TRPV4 sparklet activity in endothelium of small PAs after lung IR (in presence of CPA); assay type: cell-based, mice
Protocol: as §1, with “Sham animals underwent the same surgical procedure except that application of the Rummel tourniquet to induce ischemia was omitted; thus, these animals were perfused for a total of 3 hours.” left out
Ca^2+ imaging in Pas: Ca^2+ imaging in small Pas was performed as previously described.8 Fourth-order, small (~50 μm diameter) Pas (see FIG. 1B) were dissected from left lungs in cold HEPES-buffered physiological salt solution (HEPES-PSS; 10 mM HEPES, 134 mM NaCl, 6 mM KCl, 1 mM MgCl2 hexahydrate, 2 mM CaCl2) dihydrate, and 7 mM dextrose; pH adjusted to 7.4 using 1 M NaOH). […] Fluo-4 was excited using a 488-nm solid-state laser, and emitted fluorescence was captured using a 525/36-nm band-pass filter. […] Baseline Ca^2+ signaling activity was recorded in the absence of CPA.
TRPV4 sparklets were assessed as increases in fluorescence relative to baseline fluorescence, obtained by averaging 10 quiescent images prior to stimulation. […]

[2] = ARC 10 μmol/L, small PAs of C57BL6/J mice

Cc1ccc2c(c1)C=Cc1cc(C)ccc1C2c1cn(Cc2ccc(C(=O)Nc3nn[nH]n3)o2)c(=O)[nH]c1=S [ARC, AR-C 118925XX]
lung IR-induced increase in baseline endothelial Ca2+ signaling activity [1, 2]: abolished
lung IR-induced increase in TRPV4EC sparklet activity (TRPV4EC channels; [2]): inhibited

O=C(NC1(c2ccccc2)CC1)c1c(CN2CCC(N3CCCCC3)CC2)c(-c2cccc(C(F)(F)F)c2)nc2cc(Br)ccc12 [GSK219, GSK2193874]
increase in baseline endothelial Ca2+ signals after lung IR ([1]; GSK219 100 nM, small PAs of control mice, 1 h ischemia + 2 h reperfusion): completely abolished
IR-induced increase in TRPV4EC sparklet activity (TRPV4EC channels; GSK219, CPA 20 μM present, small PAs after lung IR): inhibited
